In a melting point compilation (Tetko et al.; mined from patent text by program, amines drawn as free bases though some values may be those of a salt) one finds melting point data, which are given here for 87 molecules.

One may read the melting point as the temperature, or range, at which the solid turns liquid.

Residues, ends and D or L forms follow the SMILES beside them. *: point of attachment. Boc = CC(C)(C)OC(=O)*; OBn = c1ccc(CO*)cc1; Bn = c1ccc(C*)cc1 A value given as a limit tells only on which side of the number the result lay.

In the case of `CCOC(=O)C1CCc2sc3ccc(C#N)cc3c2C1` (configuration not stated), the melting point was in the range of 121 to 122 °C. The value for `CCCCNC(=O)Nc1ccc(-n2ccnc2)cc1C(=O)NCC1CCN(C(c2ccccc2)c2ccccc2)CC1` was 197 to 199 °C; that for `Cn1cccc1C(=O)C(C#N)C(=O)Nc1ccc(F)cc1` (configuration not stated) was 198 to 199 °C.

Molecule `O=C1CCCCC1c1cncc(Br)c1` (configuration not stated) returned a melting point of 67 to 69 °C.

Molecule `CCOC(=O)C(C)(C)Oc1ccc(C#N)cc1C` registered a melting point of 46 °C. In turn, `O=C1N(Cc2ccco2)c2ccccc2C12COc1cc3c(cc12)OCO3` (configuration not stated) returned a melting point of 110 to 112 °C.

In turn, `O=Cc1ccc2c(c1)S(=O)c1ccccc1C=C2` (configuration not stated) yielded a melting point of 188 to 190 °C.

Take `O=C1N(Cc2ccc(Cl)s2)c2cccc(Cl)c2C12COc1cc3c(cc12)OCO3` (configuration not stated): the melting point was in the range of 167 to 168 °C. The value for `COc1cc(OC)c(-c2cccs2)cc1/C=C/C(=O)c1ccc(S(=O)(=O)NN2CCCCC2)cc1` was 174 to 176 °C; that for `CCOc1ccc([N+](=O)[O-])c(NCCN2CCOCC2)c1` was 107 °C. Under `CCOCC(=O)Nc1c(NCC(C)C)cc(C)n2nnnc12` stands 182 to 185 °C. Under `Nc1nc2ccccc2n1-c1cccc(-c2cccs2)c1` stands 142 to 144 °C.

The molecule `OCc1ccc(-c2cccnc2)o1` gave a melting point of 119 to 120 °C. Under `C=CCN1C(=O)C=C(NC2c3cc4c(cc3C(c3cc(OC)c(O)c(OC)c3)C3C(=O)OCC23)OCO4)C1=O` (configuration not stated) stands 180 to 183 °C; under `Cc1cc(C(=O)NCc2ccc(Br)cc2F)c(OCC(=O)O)cc1F`, 169 °C. Under `CS(=O)c1c(C(=O)c2cnoc2C2CC2)ccc(Cl)c1Cl` (configuration not stated) stands 110 to 112 °C. `Cc1c(C2(c3ccccc3)CCC(c3ccccc3)(N(C)C)CC2)[nH]c2ccccc12` (configuration not stated): the melting point was 193 to 207 °C. Under `CC(=O)OCC1OC(N)C(OC(C)=O)C(OC(C)=O)C1OC(C)=O` (configuration not stated) stands 145 to 147 °C. Under `Cc1[nH]c2ccccc2c1C(=O)CCCl` stands 137 to 140 °C; under `CCCCCCOc1ccc(C=[N+]([O-])CCCCCC[N+]([O-])=Cc2ccc(OCCCCCC)cc2)cc1`, 80 °C. The molecule `COc1ccc(C(=O)N2CCN(c3ccc(N)c(C=CC(=O)O)c3)CC2)cc1OC` yielded a melting point of 168 to 170 °C. The value for `C[C@@H](O)Cn1ncc2ccc(O)c([N+](=O)[O-])c21` was 70 to 74 °C. The value for `N#Cc1cc(C(=O)Nc2ccc(Cl)cn2)nc(C(F)(F)F)c1` was 208 °C; that for `Cn1nc(N)c2c(=O)n(-c3ccccc3)c3ncccc3c21` was > 300 °C. The value for `Cc1nc(-c2ccccc2)nc(NCC(=O)N(C)c2ccccc2)c1Cl` was 154 to 155 °C; that for `COC(=O)c1cccc(C=NNc2ccc(C)cc2)c1O` was 134 to 137 °C. `COc1cc(C)c(CCCCCCCCCCCCCCCC(=O)O)c(O)c1OC` came in with a melting point of 45 to 46 °C. Under `O=C(c1ccccc1)N1CCc2[nH]c3cccc(-c4ccccc4OC4CCCC4)c3c2CC1` stands 187 to 189 °C. The value for `Cc1c(C=O)c2cnnc(OCc3ccc(F)cc3)c2n1C[C@H]1C[C@@H]1C` was 138 to 140 °C; that for `Cc1ccc2oc(-c3ccccc3-c3nnn[nH]3)c(Br)c2c1` was 167 to 168 °C.

The molecule `CCOC(=O)C(=CNc1ccc(F)c(N2CCN(C(=O)OCC)CC2)n1)C(=O)OCC` returned a melting point of 144 to 145 °C. The value for `CC(=O)OCc1c(Br)cnc2c(NC(=O)c3c(Cl)cccc3Cl)cccc12` was 201 to 202 °C; that for `COC(=O)c1ccccc1C1=NC(C)(C(C)C)C(=O)N1` (configuration not stated) was 113 to 114 °C; that for `Cn1ccnc1Sc1ccc(Cl)cc1N` was 127 to 129 °C. The value for `CCN1c2ncc(CO)cc2C(=O)N(C)c2ccc(F)nc21` was 40 °C. On to `CCOP(=O)(COCC(O)COn1cnc2c(N)ncnc21)OCC` (configuration not stated), for which the melting point was 84 to 85 °C. The value for `CCCCc1nc2c(N)nc3ccccc3c2n1CCCCNC(=O)Nc1ccccc1` was 185 to 187 °C; that for `CCC(Oc1cc(OC)ccc1C(=O)c1ccc(OCc2nc(-c3ccccc3)oc2C)cc1)C(=O)O` (configuration not stated) was 161 to 162 °C. The molecule `O=Cc1ccc(OCCCCCCOc2ccc(C=O)cc2)cc1` came in with a melting point of 110 to 111 °C.

On to `CNC(=N[N+](=O)[O-])NCc1cnc(Br)s1`, for which the melting point amounted to 170 °C. The value for `CCCCN1C(=O)C2(COc3cc4c(cc32)OCO4)c2ccccc21` (configuration not stated) was 119 to 120 °C; that for `COc1ccc(-c2coc3cc(OCC4CO4)ccc3c2=O)cc1OC` (configuration not stated) was 161 to 162 °C; that for `O=Cc1cccc(Sc2ccccc2Cl)c1O` was 111 to 112 °C. The value for `CCOC(=O)[C@@H](O)[C@@H]1OC(=O)c2cc(OC)c(OC)cc21` was 144 to 146 °C; that for `CN1C(=O)Cn2c1nc(C(=O)O)c(OCc1ccccc1)c2=O` was 194 °C; that for `COc1cccc(SCCF)c1S(N)(=O)=O` was 127 °C. `COc1nc(C)c(C)cc1N` had a melting point of 56 to 58 °C.

As to `CC(C)CC(NC(=O)C(Cc1ccc(OCc2ccccc2)cc1)NC(=O)OC(C)(C)C)C(=O)OCc1ccccc1` (configuration not stated) (Boc-Tyr(Bn)-Leu-OBn; configuration not given here), the melting point fell in the range of 100 to 103 °C. Under `O=c1[nH]c2c(cc1-c1nc(-c3ccccc3)no1)CN(Cc1ccccc1)CC2` stands 231 to 233 °C; under `CN(C)CNS(=O)(=O)c1ccc(-c2cnn(Cc3ccc(F)cc3F)c(=O)c2-c2ccc(F)cc2)cc1`, 193 to 195 °C; under `COc1ccc(C(NCC(C)c2ccccc2)c2cccc(Nc3c(N)c(=O)c3=O)c2)cc1` (configuration not stated), 192 to 194 °C. `CCCCOc1cccc(C[C@H](NC(=O)c2coc(NS(C)(=O)=O)n2)[C@H](O)CNCc2cccc(CC)c2)c1` registered a melting point of 78 to 80 °C. The value for `CC(N)c1ccccc1O` (single isomer, unassigned; (+)) was 83 to 83.5 °C; that for `Cc1ccc(-c2[nH]c(=O)n(C3CCN(Cc4ccccc4C)CC3)c2C)cc1` was 262 °C. For the molecule `C#Cc1cccc(C(=O)OCC)c1`, the melting point was in the range of 36 to 38 °C. Under `CC(C)(C)OC(=O)N1CCN(CCSc2nc3cc(F)c(F)cc3[nH]2)CC1` stands 192 to 193 °C; under `C=CC[Si](C)(C)c1cccc(Cl)c1C(=O)NCC`, 61 to 63 °C.

As to `CC(C)S(=O)(=O)c1cc(C#N)c(N)c(OCCc2ccccn2)c1`, the melting point fell in the range of 122 to 123 °C.

The molecule `CCOc1cc(-c2cc(C(F)F)n3ncc(C(=O)Nc4cccc(S(=O)(=O)N5CCOCC5)c4)c3n2)ccc1C(F)(F)F` displayed a melting point of 231 °C. Under `CCCNC(=O)N1CCc2cc(S(=O)(=O)n3cc(-c4ccccc4)[nH]c3=O)ccc21` stands 165 to 167 °C; under `CC(C)OC(=O)c1cc(-c2nn(C)c(C(F)(F)F)c2C(F)F)c(F)cc1Cl`, 57 °C.

As to `CCOC(=O)c1cnc2n(c1=O)-c1ccccc1N(C(=O)OCC)C2`, the melting point was 140 to 142 °C. Under `CCNc1ncc(-c2cc(Cl)cc(Cl)c2Cl)c(N)n1` stands 149 to 152 °C; under `Cc1cc(C(C)N(O)C(N)=O)c(C)s1` (configuration not stated), 146 to 147 °C. Under `CCCCCCCCOc1ccc(-c2ncc(Br)cn2)c(F)c1F` stands 74.6 °C; under `COc1nc2nc(C=C3C(=O)N4C(C(=O)O)=CSC34)cn2c2c1CCC2` (configuration not stated), > 250 °C. The value for `CC(C)Sc1nc(C(F)(F)F)c(I)c(=O)[nH]1` was 212 to 215 °C; that for `CCc1ccnc(C(=O)c2[nH]c3ccc(C(F)(F)F)cc3c2CC(=O)O)c1` was 204 °C; that for `CC(=O)CCCCCCCc1ccc(O)c(O)c1` was 73 to 75 °C.

As to `CC(Oc1ccc2c(=O)c(-c3cccc(O)c3)coc2c1)C(=O)O` (configuration not stated), the melting point lay within 218 to 219 °C. In turn, `c1ccc(C2CSC(c3ccccc3)N2)cc1` (mixture of isomers) returned a melting point of 120 °C. The value for `CC(=O)CS(=O)(=O)C(c1ccc(Cl)cc1)c1ccc(Cl)cc1` was 114 to 115 °C; that for `O=c1c(Br)c(O)c2cccnc2n1-c1ccccc1` was > 280 °C; that for `CCCCCCCCCCCCC1=C(OC(C)=O)C(=O)c2c(C)cccc2C1=O` was 69 to 74 °C.

Molecule `CCNC(=O)c1ccc(F)c(Cl)c1` yielded a melting point of 102 °C. Under `O=C1CCN(Cc2ccc(O)cc2)CC1C(c1ccccc1)c1ccccc1` (configuration not stated) stands 133 to 134 °C; under `COc1ccc(S(=O)(=O)c2c(C(C)C)n(C)c3ccccc23)cc1`, 125 °C. The molecule `CCOC(=O)c1ccc(-c2cnc3c(c2)N(Cc2ccccc2OC(F)(F)F)CCN3)cc1` had a melting point of 153 °C. Under `O=c1nc(-c2ccccn2)sc2ccc(OCCCc3ccccc3)cc12` stands 170 °C; under `Cc1[nH]c2ccccc2c1CCN1CCC(Oc2ccc(F)cc2)CC1`, 97 to 99 °C; under `N#CC(CCN1CCC(C(=O)ON2C(=O)c3ccccc3C2=O)(c2ccccc2)CC1)(c1ccccc1)c1ccccc1`, 156 to 158 °C. The value for `CCCCCCCCCCCCCCCCn1nnc(C(C(=O)Nc2c(OC)cc(OC)cc2OC)c2ccccc2)n1` (configuration not stated) was 134 to 135 °C; that for `Oc1ccc2ccccc2c1N=Nc1ccc2[nH]nnc2c1` was 250 °C; that for `O=C(NO)c1ccc(C(=O)NOCC2CCc3ccccc3C2)cc1` (configuration not stated) was 184 to 186 °C. The value for `COc1cc2c(cc1Nc1ncc(Cl)c(Nc3ccc(N4CCOCC4)cc3OC)n1)CCN(CCNC(C)=O)CC2` was 50 to 65 °C; that for `OCCOC(c1ccccc1)c1ccccc1` was 95 to 97 °C; that for `CCc1cccc2c1N(CC(=O)N1CC3CCC(CC3)C1)C(=O)C(NC(=O)Nc1cccc(C)c1)N=C2c1ccccc1F` (configuration not stated) was 163 to 168 °C.
